PMC12114840, “Exploring the Anticancer Properties of 1,2,3-Triazole-Substituted Andrographolide Derivatives” (Pharmaceuticals, 2025)

Legend:
A375 cells (melanoma) = assay: Sulforhodamine B (SRB) antiproliferative assay, A375; type: cell-based; details: Homo sapiens, A-375, A375, 48 h, mean ± SEM of four to six independent experiments
Procedure: (§1) The antiproliferative properties of andrographolide and all prepared derivatives (2–26) were evaluated against a panel of different cancer cell lines, including human pancreatic ductal adenocarcinoma (PANC-1), colorectal adenocarcinoma (HCT116), melanoma (A375), breast adenocarcinoma (MCF-7) and a non-tumorigenic colon (CCD-18Co) cell line using the sulforhodamine B assay.
(§2) Human breast adenocarcinoma MCF-7, pancreatic ductal adenocarcinoma PANC-1, melanoma A375, and non-tumorigenic colon CCD-18Co cell lines were purchased from ATCC (Rockville, MD, USA). Human colorectal adenocarcinoma HCT116 cells were kindly provided by B. Vogelstein (The Johns Hopkins Kimmel Cancer Center, Baltimore, MD, USA). Tumor cells were routinely cultured in RPMI-1640 medium with UltraGlutamine from Biowest (VWR, Carnaxide, Portugal) supplemented with 10% fetal bovine serum (FBS) from Biowest (VWR, Carnaxide, Portugal), except for the PANC-1 cells, which were grown in DMEM (4.5 g/L glucose) with stable L-glutamine and sodium pyruvate and supplemented with 10% FBS. The non-tumorigenic CCD-18Co cells were cultured in EMEM (Lonza, VWR, Carnaxide, Portugal), supplemented with 10% FBS. All cells were incubated at 37 °C in a humidified atmosphere of 5% CO2. Routine mycoplasma testing was performed using the MycoAlert™ PLUS mycoplasma detection kit (Lonza).
(§3) For the evaluation of the compound effect on cell proliferation, human cell lines were seeded in 96-well plates at a density of 5.0 × 10^3 (HCT116, MCF-7, PANC-1, A375, and CCD-18Co) cells per well, for 24 h. Cells were then treated with serial dilutions of the compound (ranging from 0.63 to 30 µM), for an additional 48 h incubation period. The growth inhibitory effects were assessed by SRB assay, as described in [58], and the half-maximal inhibitory concentration (IC50 values) were determined for each cell line using the GraphPad Prism software version 7.0 (La Jolla, CA, USA). Culture medium containing a maximum of 0.05% dimethyl sulfoxide (DMSO) was used as negative control.

PANC-1 cells [1] = assay: Annexin V-FITC/PI double-staining apoptosis assay; type: cell-based, human; details: 48 h
Excerpt: To further investigate the mechanism of action of the triazole derivative 12, an apoptosis analysis was subsequently performed in PANC-1 cells. The early stages of apoptosis are characterized by the disruption of membrane asymmetry and the translocation of phosphatidylserine from the inner to the outer leaflet of the plasma membrane, which can be detected using Annexin V-FITC, a protein with high affinity for phosphatidylserine. In the later stages of apoptosis, the cell membrane loses its integrity, allowing propidium iodide (PI) to penetrate into the cell. Thus, PANC-1 cells treated with compound 12 at 3 and 6 μM for 48 h were analyzed by flow cytometry after Annexin V-FITC and PI staining (Figure 1B, bottom panel; and Figure 1D). This analysis can distinguish and quantify viable cells (annexin V−, PI−), early apoptotic cells (annexin V+, PI−), late apoptotic cells (annexin V+, PI+), and necrotic cells (annexin V−/PI+). […] Cleavage of PARP-1 into an 89 kDa protein, cleaved PARP-1, occurs during programmed cell death (apoptosis) as a result of proteolytic processing by active caspase-3. Thus, cleaved PARP-1 is recognized as a marker of apoptosis.
The analyses were performed as described in the literature. In particular, 1.5 × 10^5 PANC-1 cells/well were seeded in 6-well plates and allowed to adhere overnight, followed by treatment with 3 µM and 6 µM of compound 12 for 48 h. For cell cycle analysis, cells were stained with propidium iodide (Sigma-Aldrich) and subjected to flow cytometry. Cell cycle phases were identified and quantified using the FlowJo X 10.0.7 software (Treestar, Ashland, OR, USA). For apoptosis analysis, cells were stained using the Annexin V-FITC Apoptosis Detection Kit I from BD Biosciences (Enzifarma, Porto, Portugal), according to the manufacturer’s instructions. The Accuri^TM C6 flow cytometer and the BD Accuri C6 software (BD Biosciences, Heidelberg, Germany) were used.

cleaved PARP-1 = assay: Western blot, cleaved PARP-1; type: cell-based, human; details: PANC-1, 3 and 6 μM, 48 h
Excerpt: To further investigate the mechanism of action of the triazole derivative 12, an apoptosis analysis was subsequently performed in PANC-1 cells. The early stages of apoptosis are characterized by the disruption of membrane asymmetry and the translocation of phosphatidylserine from the inner to the outer leaflet of the plasma membrane, which can be detected using Annexin V-FITC, a protein with high affinity for phosphatidylserine. In the later stages of apoptosis, the cell membrane loses its integrity, allowing propidium iodide (PI) to penetrate into the cell. Thus, PANC-1 cells treated with compound 12 at 3 and 6 μM for 48 h were analyzed by flow cytometry after Annexin V-FITC and PI staining (Figure 1B, bottom panel; and Figure 1D). This analysis can distinguish and quantify viable cells (annexin V−, PI−), early apoptotic cells (annexin V+, PI−), late apoptotic cells (annexin V+, PI+), and necrotic cells (annexin V−/PI+). […]
PANC-1 (1.5 × 10^5 cells/well) were seeded in six-well plates, allowed to adhere overnight, and treated with 3 µM and 6 µM of compound 12 for 48 h. Protein lysates were obtained in RIPA buffer with protease inhibitors (Sigma-Aldrich, Lisbon, Portugal) and quantified using Pierce® bicinchoninic acid (BCA) protein assay reagents (Thermo Fisher Scientific, Porto Salvo, Portugal). […]

[2] = tested on: HCT116 cells (colorectal adenocarcinoma); assay: Sulforhodamine B (SRB) antiproliferative assay, HCT116; type: cell-based; details: Homo sapiens, HCT-116, HCT116, 48 h, mean ± SEM of four to six independent experiments
Procedure: as §1, §2, §3

PANC-1 cells [3] = assay: Drug combination assay with 5-fluorouracil (SRB, CompuSyn); type: cell-based, human; details: PANC-1, 48 h
Procedure: Using the CompuSyn software (version 1.0), a multiple drug effect analysis was performed for each combination, to determine combination index (CI) and dose-reduction index (DRI) values. CI values indicate the effect of combining multiple drugs as synergistic (CI < 1), additive (CI = 1), or antagonistic (CI > 1). DRI values represent the fold decrease in the dose of a drug needed when in combination to achieve the same efficacy as the drug alone. DRI values > 1 are favorable given the concern for toxicity when combining multiple drugs.
The effect on cell proliferation was analyzed by SRB assay. […] Synergistic interactions of drugs were indicated as CI < 1, antagonist interactions as CI > 1.1, and additive effects as 1 < CI < 1.1.

`C=C1CC[C@@H]2[C@](C)(COC(C)=O)[C@H](OC(C)=O)CC[C@@]2(C)[C@@H]1C[C@H](C1=CCOC1=O)n1cc(-c2ccc(Br)cc2)nn1` [Compound 12, (12R)-4-bromophenyl-1,2,3-triazole-3,19-diacetoxy-14-deoxy-andrographolide] showed an IC50 (A375 cells (melanoma)) of 1.7 µM, a viability at 3 µM (PANC-1 cells [1]; Homo sapiens, PANC-1, 3 µM, read-out: viable cells (annexin-V−, PI−; Q4)) of 79.7% and a viability at 6 µM (PANC-1 cells [1]; Homo sapiens, PANC-1, 6 µM, read-out: viable cells (annexin-V−, PI−; Q4)) of 68.4%. The “early apoptotic cells (annexin V+, PI−; Q3)” value (PANC-1 cells [1]; PANC-1, 3 µM) was 7.08%, the “late apoptotic cells (annexin V+, PI+; Q2)” value (PANC-1 cells [1]; PANC-1, 3 µM) was 10.2% and the “percentage of apoptotic cells (Annexin V+)” value (PANC-1 cells [1]; PANC-1, 3 µM) was 17.28%. The “early apoptotic cells (annexin V+, PI−; Q3)” value (PANC-1 cells [1]; PANC-1, 6 µM) was 13.3%, the “late apoptotic cells (annexin V+, PI+; Q2)” value (PANC-1 cells [1]; PANC-1, 6 µM) was 13.5% and the “percentage of apoptotic cells (Annexin V+)” value (PANC-1 cells [1]; PANC-1, 6 µM) was 26.8%. For the same molecule, the “levels of cleaved PARP-1” value (cleaved PARP-1) was “significant increase in the levels of cleaved PARP-1”, the IC50 [2] was 1.7 ± 0.2 µM and the “combination index (CI)” value (PANC-1 cells [3]; 5-FU 3.75 µM + 1.35 µM of compound 12) was 0.87. The “combination index (CI)” value (PANC-1 cells [3]; 5-FU 7.5 µM + 1.35 µM of compound 12) was 0.90.
